Assay results from patent publication US8163793B2, “Proline derivatives” (Hoffman-La Roche Inc., priority 2009, dated 2012).
Where a name gives a salt, the structure may show the parent alone.

Assays:
Cathepsin S = Cathepsin S (UniProt P25774); test: Cathepsin enzyme inhibition assay (fluorogenic peptide substrate Z-Val-Val-Arg-AMC), Cathepsin S; type: biochemical, human and mouse; details: enzyme 1 nM, substrate 20 μM, pH 6.5; read-out: CatS IC50
Summary of the method: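 Compounds were combined with 1 nM human or mouse enzyme, and substrate then started the reaction. The buffer was potassium phosphate (100 mM, pH 6.5) containing EDTA-Na 5 mM, Triton X-100 0.001% and […] 5 mM.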

Cat L = Cat L (UniProt P07711); test: Cathepsin enzyme inhibition assay (fluorogenic peptide substrate Z-Val-Val-Arg-AMC), Cathepsin L; type: biochemical, human and mouse; details: for IC50: enzyme 1 nM, substrate 20 μM, pH 6.5, read-out: CatL IC50
Summary of the method: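 Fluorogenic cleavage of Z-Val-Val-Arg-AMC (20 μM) by 1 nM Cat L was monitored at ex 360/em 465 nm for 20 min, the linear phase. The buffer was 100 mM potassium phosphate pH 6.5 with 5 mM EDTA and DTT. IC50 values were derived by standard methods, in μM.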

SMILES | IC50 (Cathepsin S) [nM] | IC50 (Cat L) [nM] | CatL, % @25 uM (Cat L; @25 uM compound) [% @25 uM]
CC(C)(C)OC(=O)N1C[C@H](S(=O)(=O)c2ccc(OCC(F)(F)F)cc2Cl)C[C@H]1C(=O)NC1(C#N)CC1 [Example 171, (2S,4R)-4-[2-Chloro-4-(2,2,2-trifluoro-ethoxy)-benzenesulfonyl]-2-(1-cyano-cyclopropylcarbamoyl)-pyrrolidine-1-carboxylic acid tert.-butyl ester] | 7 | ≥ 25000 | 
Cc1cc(N2C[C@H](S(=O)(=O)c3ccccc3C(F)(F)F)C[C@H]2C(=O)NC2(C#N)CC2)n(Cc2ccccc2)n1 [Example 319, (2S,4R)-1-(2-Benzyl-5-methyl-2H-pyrazol-3-yl)-4-(2-trifluoromethyl-benzenesulfonyl)-pyrrolidine-2-carboxylic acid (1-cyano-cyclopropyl)-amide] | 1.43 | 40800 | 
CC(C)(C)OC(=O)N1C[C@H](S(=O)(=O)c2ccc(-n3cccn3)cc2Cl)C[C@H]1C(=O)NC1(C#N)CC1 [Example 120, (2S,4R)-4-(2-Chloro-4-pyrazol-1-yl-benzenesulfonyl)-2-(1-cyano-cyclopropylcarbamoyl)-pyrrolidine-1-carboxylic acid tert-butyl ester] | 2.8 | ≥ 25000 | 
N#CC1(NC(=O)[C@@H]2C[C@@H](S(=O)(=O)c3ccccc3Cl)CN2C(=O)c2ccc(F)cc2)CC1 [Example 76, (2S,4R)-4-(2-Chloro-benzenesulfonyl)-1-(4-fluoro-benzoyl)-pyrrolidine-2-carboxylic acid (1-cyano-cyclopropyl)-amide] | 1.4 | 8800 | 
N#CCNC(=O)[C@@H]1C[C@@H](S(=O)(=O)c2ccccc2C(F)(F)F)CN1C(=O)OC1CCCC1 [Example 72, (2S,4R)-2-(Cyanomethyl-carbamoyl)-4-(2-trifluoromethyl-benzenesulfonyl)-pyrrolidine-1-carboxylic acid Cyclopentyl Ester] | 0.8 | ≥ 25000 | 
Cc1cc(N2C[C@H](S(C)(=O)=O)C[C@H]2C(=O)NC2(C#N)CC2)n(CC(F)(F)F)n1 [Example 466, (2S,4R)-4-Methanesulfonyl-1-[5-methyl-2-(2,2,2-trifluoro-ethyl)-2H-pyrazol-3-yl]-pyrrolidine-2-carboxylic acid (1-cyano-cyclopropyl)-amide] | 8600 |  | 95
CC(C)(C)OC(=O)N1C[C@H](S(=O)(=O)c2ccccc2Cl)C[C@H]1C(=O)NC1(C#N)CCC1 [Example 34, (2S,4R)-4-(2-Chloro-benzenesulfonyl)-2-(1-cyano-cyclobutylcarbamoyl)-pyrrolidine-1-carboxylic acid tert-butyl ester] | 766 | ≥ 25000 | 
N#CC1(NC(=O)[C@@H]2C[C@@H](S(=O)(=O)c3ccccc3Cl)CN2)CCC1 [Example 45, (2S,4R)-4-(2-Chloro-benzenesulfonyl)-pyrrolidine-2-carboxylic acid (1-cyano-cyclobutyl)-amide Hydrochloride] | 378 | ≥ 25000 | 
N#CC1(NC(=O)[C@@H]2C[C@@H](S(=O)(=O)c3ccccc3Cl)CN2C(=O)C2(c3cc(F)c(Cl)cc3Cl)CC2)CC1 [Example 461, (2S,4R)-4-(2-Chloro-benzenesulfonyl)-1-[1-(2,4-dichloro-5-fluoro-phenyl)-cyclopropanecarbonyl]-pyrrolidine-2-carboxylic acid (1-cyano-cyclopropyl)-amide] | 0.985 | 22.5 | 
Cc1cc(N2C[C@H](S(=O)(=O)c3ccccc3Cl)C[C@H]2C(=O)NC2(C#N)CC2)n(-c2ccnc(Cl)c2)n1 [Example 254, (2S,4R)-4-(2-Chloro-benzenesulfonyl)-1-[2-(2-chloro-pyridin-4-yl)-5-methyl-2H-pyrazol-3-yl]-pyrrolidine-2-carboxylic acid (1-cyano-cyclopropyl)-amide] | 0.83 | 2260 | 
N#CCNC(=O)[C@@H]1C[C@@H](S(=O)(=O)c2ccccc2C(F)(F)F)CN1c1ccccc1[N+](=O)[O-] [Example 164, (2S,4R)-1-(2-Nitro-phenyl)-4-(2-trifluoromethyl-benzenesulfonyl)-pyrrolidine-2-carboxylic acid cyanomethyl-amide] | 0.8 | ≥ 25000 | 
CC(C)(C)C(=O)N1C[C@H](S(=O)(=O)c2ccc(OCC(F)(F)F)cc2Cl)C[C@H]1C(=O)NC1(C#N)CC1 [Example 176, (2S,4R)-4-[2-Chloro-4-(2,2,2-trifluoro-ethoxy)-benzenesulfonyl]-1-(2,2-dimethyl-propionyl)-pyrrolidine-2-carboxylic acid (1-cyano-cyclopropyl)-amide] | 0.98 | 35800 | 
N#CC1(NC(=O)[C@@H]2C[C@@H](S(=O)(=O)c3ccccc3Cl)CN2C(=O)c2n[nH]c3cc(Cl)ccc23)CC1 [Example 410, (2S,4R)-4-(2-Chloro-benzenesulfonyl)-1-(6-chloro-1H-indazole-3-carbonyl)-pyrrolidine-2-carboxylic acid (1-cyano-cyclopropyl)-amide] | 4.8 | 29700 | 

Further lines, results first:

IC50 (Cathepsin S) [nM] | IC50 (Cat L) [nM] | CatL, % @25 uM (Cat L; @25 uM compound) [% @25 uM] | SMILES
0.168 | 39200 |  | N#CC1(NC(=O)[C@@H]2C[C@@H](S(=O)(=O)c3ccc(-c4ccnc(Cl)c4)cc3C(F)(F)F)CN2C(=O)C2(C(F)(F)F)CC2)CC1 [Example 245, (2S,4R)-4-[4-(2-Chloro-pyridin-4-yl)-2-trifluoromethyl-benzenesulfonyl]-1-(1-trifluoromethyl-cyclopropanecarbonyl)-pyrrolidine-2-carboxylic acid (1-cyano-cyclopropyl)-amide]
0.14 | 445 |  | N#CC1(NC(=O)[C@@H]2C[C@@H](S(=O)(=O)c3ccc(OCC(F)(F)F)cc3Cl)CN2C(=O)C2(c3ccc(C(N)=O)cc3)CC2)CC1 [Example 277, (2S,4R)-1-[1-(4-Carbamoyl-phenyl)-cyclopropanecarbonyl]-4-[2-chloro-4-(2,2,2-trifluoro-ethoxy)-benzenesulfonyl]-pyrrolidine-2-carboxylic acid (1-cyano-cyclopropyl)-amide]
0.8 | ≥ 25000 |  | CC(=O)N1C[C@H](S(=O)(=O)c2ccc(-n3ccnc3)cc2C(F)(F)F)C[C@H]1C(=O)NC1(C#N)CC1 [Example 112, (2S,4R)-1-Acetyl-4-(4-imidazol-1-yl-2-trifluoromethyl-benzenesulfonyl)-pyrrolidine-2-carboxylic acid (1-cyano-cyclopropyl)-amide]
0.48 | 35600 |  | Cc1cc(N2C[C@H](S(=O)(=O)c3ccc(F)cc3C(F)(F)F)C[C@H]2C(=O)NC2(C#N)CC2)n(C2CCC2)n1 [Example 388, (2S,4R)-1-(2-Cyclobutyl-5-methyl-2H-pyrazol-3-yl)-4-(4-fluoro-2-trifluoromethyl-benzenesulfonyl)-pyrrolidine-2-carboxylic acid (1-cyano-cyclopropyl)-amide]
0.4 | ≥ 25000 |  | N#CC1(NC(=O)[C@@H]2C[C@@H](S(=O)(=O)c3ccccc3C(F)(F)F)CN2C(=O)c2ccc(F)cc2)CC1 [Example 106, (2S,4R)-1-(4-Fluoro-benzoyl)-4-(2-trifluoromethyl-benzenesulfonyl)-pyrrolidine-2-carboxylic Acid (1-cyano-cyclopropyl)-amide]
0.6 | 17100 |  | CN1CCN(c2ccc(S(=O)(=O)[C@@H]3C[C@@H](C(=O)NC4(C#N)CC4)N(C(=O)C4(C)CC4)C3)c(C(F)(F)F)c2)CC1 [Example 272, (2S,4R)-1-(1-Methyl-cyclopropanecarbonyl)-4-[4-(4-methyl-piperazin-1-yl)-2-trifluoromethyl-benzenesulfonyl]-pyrrolidine-2-carboxylic acid (1-cyano-cyclopropyl)-amide]
0.655 | 5280 |  | Cc1cc(N2C[C@H](S(=O)(=O)c3ccc(-n4cccn4)cc3Cl)C[C@H]2C(=O)NC2(C#N)CC2)n(C2CCC2)n1 [Example 491, (2S,4R)-4-(2-Chloro-4-pyrazol-1-yl-benzenesulfonyl)-1-(2-cyclobutyl-5-methyl-2H-pyrazol-3-yl)-pyrrolidine-2-carboxylic acid (1-cyano-cyclopropyl)-amide]
0.6 | ≥ 25000 |  | N#CCNC(=O)[C@@H]1C[C@@H](S(=O)(=O)c2ccccc2C(F)(F)F)CN1C(=O)c1ccc(F)cc1 [Example 65, (2S,4R)-1-(4-Fluoro-benzoyl)-4-(2-trifluoromethyl-benzenesulfonyl)-pyrrolidine-2-carboxylic acid cyanomethyl-amide]
0.4 | 7580 |  | N#CC1(NC(=O)[C@@H]2C[C@@H](S(=O)(=O)c3ccc(Cl)cc3Cl)CN2C(=O)C2(C(F)(F)F)CCC2)CC1 [Example 169, (2S,4R)-4-(2,4-Dichloro-benzenesulfonyl)-1-(1-trifluoromethyl-cyclobutanecarbonyl)-pyrrolidine-2-carboxylic acid (1-cyano-cyclopropyl)-amide]
0.7 | 8100 |  | CC(Oc1ccc(S(=O)(=O)[C@@H]2C[C@@H](C(=O)NC3(C#N)CC3)N(C(=O)C3(C(F)(F)F)CC3)C2)c(Cl)c1)C(F)(F)F (stereo partly drawn) [Example 149, (2S,4R)-4-[2-Chloro-4-(2,2,2-trifluoro-1-methyl-ethoxy)-benzenesulfonyl]-1-(1-trifluoromethyl-cyclopropanecarbonyl)-pyrrolidine-2-carboxylic acid (1-cyano-cyclopropyl)-amide]
0.17 | 1180 |  | N#CC1(NC(=O)[C@@H]2C[C@@H](S(=O)(=O)c3ccc(N4CCN5CCC[C@H]5C4)cc3Cl)CN2C(=O)C2(C(F)(F)F)CC2)CC1 [Example 299, (2S,4R)-4-((S)-2-Chloro-4-hexahydro-pyrrolo[1,2-a]pyrazin-2-yl-benzenesulfonyl)-1-(1-trifluoromethyl-cyclopropanecarbonyl)-pyrrolidine-2-carboxylic acid (1-cyano-cyclopropyl)-amide]
